Results: US12643871B2, “Aryl formamide compound containing chiral sulfur oxide or salt thereof, preparation method, herbicidal composition and use thereof” (Qingdao Kingagroot Chemical Compound Co., Ltd., priority 2019, dated 2026)

Assays:
Type in all cases: in vivo
[1] = system: Abutilon theophrasti; experiment: Weeding effect in post-emergence stage; settings: 250 g/ha; 2 leaf stage; 15 days after application; fresh weight control rate
Outline: (§1)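 Two-leaf-stage pot plants, spray-tower application at 500/250/125/60/30/15 g/ha with methyl oleate EC synergist; fresh weight control level (0–5) read at 15 days post-treatment, three replicates averaged.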

[2] = system: Amaranthus retroflexus; experiment: Weeding effect in post-emergence stage; settings: 250 g/ha; 2 leaf stage; 15 days after application; fresh weight control rate
Outline: as §1

[3] = system: Digitaria sanguinalis; experiment: Weeding effect in post-emergence stage; settings: 250 g/ha; 2 leaf stage; 15 days after application; fresh weight control rate
Outline: as §1

[4] = system: Echinochloa crusgali; experiment: Weeding effect in post-emergence stage; settings: 250 g/ha; 2 leaf stage; 15 days after application; fresh weight control rate
Outline: as §1

[5] = system: Setaria viridis; experiment: Weeding effect in post-emergence stage; settings: 250 g/ha; 2 leaf stage; 15 days after application; fresh weight control rate
Outline: as §1

[6] = system: Abutilon theophrasti; experiment: Comparison experiment (post-emergence) against racemate / S configuration; settings: 30 g/ha; 3-4 weeks after sowing, 4-5 leaf-stage of weed, 25DAA
From the text: (§2) The above growth control rates are fresh weight control rates.
(§3) Experiment on weeding effect in post-emergence stage: monocotyledonous and dicotyledonous weed seeds (Descurainia sophia, Capsella bursa-pastoris, Galium aparine, Stellaria media, Lithospermum arvense, Rorippa indica, Alopecurus aequalis, Beckmannia syzigachne, Sclerochloa dura, Phleum paniculatum, Bromus japonicus, Aegilops tauschii, Phalaris arundinacea, Amaranthus retroflexus, Chenopodiaceae, Commelina communis, Sonchus arvensis, convolvulus arvensis, Cirsium setosum, Solanum nigrum, Acalypha australis, Digitaria sanguinalis, Echinochloa crusgalli, Setaria viridis, Setaria glauca, Leptochloa chinensis, Monochoria vaginalis, Sagittaria trifolia, Scirpus juncoides, Cyperus rotundus, Cyperus iria, Cyperus difformis, Fimbristylis, Portulaca oleracea, Xanthium sibiricum, Pharbitis nil) and major crop seeds (wheat, corn, rice, soybean, cotton, oilseed rape, millet, sorghum, potato, sesame, ricinus) were placed in plastic pots filled with soil, then covered with 0.5-2 cm of soil, allowed to grow in a good greenhouse environment. […] The tested compounds of the present invention were respectively dissolved in acetone, then added with Tween 80 and 1.5 liter/ha of emulsifiable concentrate of methyl oleate as synergist, diluted with a certain amount of water to obtain a solution with a certain concentration, and sprayed with a spray tower onto the plants. […]
(§4) If there is no clear marker, the post-seedling test conditions are the same as above, and the experimental results are shown in Tables 4-7.

[7] = system: Green Setaria viridis; experiment: as above; settings: 3-4 weeks after sowing, 4-5 leaf-stage of weed; for Results of comparison experiment, Green Setaria viridis (60 g/ha): 25DAA
From the text: as §2, §3, §4

[8] = system: Leptochloa chinensis; experiment: as above; settings: for Results of comparison experiment, Leptochloa chinensis (60 g/ha): 25DAA
From the text: as §2, §3, §4

[9] = system: Digitaria sanguinalis; experiment: as above; settings: 30 g/ha, 3-4 weeks after sowing, 4-5 leaf-stage of weed, 25DAA; for pest or weed control at 30 g/ha: Digitaria sanguinalis, post-emergence, 600 h
[10] = system: Rice(Longyang 16); experiment: Comparison experiment (post-emergence), crop safety on direct seeding rice
From the text: as §2
(§5) Experiment on weeding effect in post-emergence stage: monocotyledonous and dicotyledonous weed seeds (Descurainia sophia, Capsella bursa-pastoris, Galium aparine, Stellaria media, Lithospermum arvense, Rorippa indica, Alopecurus aequalis, Beckmannia syzigachne, Sclerochloa dura, Phleum paniculatum, Bromus japonicus, Aegilops tauschii, Phalaris arundinacea, Amaranthus retroflexus, Chenopodiaceae, Commelina communis, Sonchus arvensis, convolvulus arvensis, Cirsium setosum, Solanum nigrum, Acalypha australis, Digitaria sanguinalis, Echinochloa crusgalli, Setaria viridis, Setaria glauca, Leptochloa chinensis, Monochoria vaginalis, Sagittaria trifolia, Scirpus juncoides, Cyperus rotundus, Cyperus iria, Cyperus difformis, Fimbristylis, Portulaca oleracea, Xanthium sibiricum, Pharbitis nil) and major crop seeds (wheat, corn, rice, soybean, cotton, oilseed rape, millet, sorghum, potato, sesame, ricinus) were placed in plastic pots filled with soil, then covered with 0.5-2 cm of soil, allowed to grow in a good greenhouse environment. After 2 weeks of sowing, the test plants were treated in the 2 leaf stage. The tested compounds of the present invention were respectively dissolved in acetone, then added with Tween 80 and 1.5 liter/ha of emulsifiable concentrate of methyl oleate as synergist, diluted with a certain amount of water to obtain a solution with a certain concentration, and sprayed with a spray tower onto the plants. After the application, the plants were cultured for 15 days in the greenhouse, and then the experimental results of the weeding were counted. The doses of the used compounds were 500, 250, 125, 60, 30, 15 g/ha, and the averages were obtained by repeating for three times.
as §4
Longyang 16 is an important cultivated variety representative of long-grain fragrant rice in northeast China. Long-grain fragrant rice is sensitive to herbicides and prone to drug damage, especially HPPD herbicides such as mesotrione and benzobicylon. […] It was not consistent with the well-known structure-activity relationship that aryloxyphenoxypropionic acid herbicides and phenoxypropionic acid herbicides in effective form have high activity to weeds and heavy damage to crops, and in ineffective form have almost no activity.

[11] = system: key weeds such as Digitaria sanguinalis, Leptochloa chinensis; experiment: Comparison experiment (post-emergence, Tables 4-7), herbicidal activity on weeds not listed separately; settings: dose of 125, 60, 30, 15 g/ha
Outline: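 Compounds are applied post-emergence by spray tower to plants at the 2 leaf stage, at rates from 15 to 500 g/ha with a methyl oleate synergist. Control is expressed on fresh weight, counted after 15 days in the greenhouse and averaged across three repetitions.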

[12] = system: rice and other crops; experiment: Comparison experiment (post-emergence, Tables 4-7), crop safety; settings: dose of 125, 60, 30, 15 g/ha
From the text: as §2, §5, §4

[13] = 3-4 weeks after sowing, 4-5 leaf-stage of weed

| SMILES | weeding effect in post-emergence stage, activity level (growth control rate), Abutilon theophrasti [1] | weeding effect in post-emergence stage, activity level (growth control rate), Amaranthus retroflexus [2] | weeding effect in post-emergence stage, activity level (growth control rate), Digitaria sanguinalis [3] | weeding effect in post-emergence stage, activity level (growth control rate), Echinochloa crusgali [4] | weeding effect in post-emergence stage, activity level (growth control rate), Setaria viridis [5] | Results of comparison experiment, Abutilon theophrasti (30 g/ha) [6] | Results of comparison experiment, Green Setaria viridis (60 g/ha) [7] | Results of comparison experiment, Leptochloa chinensis (60 g/ha) [8, 13] | Results of comparison experiment, Digitaria sanguinalis (30 g/ha) [9] | Results of comparison experiment, Green Setaria viridis (30 g/ha) ([7]; 30 g/ha, 25 DAA (Table 5)) | Results of comparison experiment, Leptochloa chinensis (125 g/ha) ([8]; 125 g/ha, 3-4 weeks after sowing, 4-5 leaf-stage of weed, 25 DAA (Table 5)) | activity against key weeds such as Leptochloa chinensis, in words ([8]; summary of Table 5) | Results of comparison experiment, Rice(Longyang 16) (250 g/ha) ([10]; 250 g/ha, 1.5-2 leaf-stage of direct seeding rice variety Longyang 16, 25 DAA) | Results of comparison experiment, Rice(Longyang 16) (500 g/ha) ([10]; 500 g/ha, 1.5-2 leaf-stage of direct seeding rice variety Longyang 16, 25 DAA) | safety to rice (Longyang 16), in words ([10]; summary of Table 5) | activity to key weeds such as Digitaria sanguinalis, Leptochloa chinensis compared with the corresponding racemate or S configuration [11] | safety to rice and other crops compared with the corresponding racemate or S configuration [12] | pest or weed control at 30 g/ha [9] |
| --- | --- | --- | --- | --- | --- | --- | --- | --- | --- | --- | --- | --- | --- | --- | --- | --- | --- | --- |
| Cc1nnc(NC(=O)c2ccc(C(F)(F)F)c([S@@+](C)[O-])c2F)o1 [Compound 1] | 5 (Level 5: growth control rate is above 85%) | 5 (Level 5: growth control rate is above 85%) | 3 (Level 3: growth control rate is greater than or equal to 40% and less than 60%) | 5 (Level 5: growth control rate is above 85%) | 3 (Level 3: growth control rate is greater than or equal to 40% and less than 60%) | 100% | 80% | 70% | 90% | – | – | – | – | – | – | – | – | – |
| CCC[S+]([O-])c1c(C(F)(F)F)ccc(C(=O)Nc2nnc(C)o2)c1F (single isomer, unassigned) [Control Compound A] | – | – | – | – | – | 0% | 15% | 0% | 0% | 0% | 10% | lower activity | 15% | 25% | not safe | – | – | – |
| CCC[S@@+]([O-])c1c(C(F)F)ccc(C(=O)Nc2nnc(C)o2)c1F [Compound 637] | 5 (Level 5: growth control rate is above 85%) | 5 (Level 5: growth control rate is above 85%) | 5 (Level 5: growth control rate is above 85%) | 5 (Level 5: growth control rate is above 85%) | 5 (Level 5: growth control rate is above 85%) | 100% | 100% | 90% | – | – | – | – | – | – | – | better activity | higher safety | 100% |
| Cc1nnc(NC(=O)c2ccc(C(F)F)c([S+](C)[O-])c2F)o1 (stereo not drawn) [Control Compound E] | – | – | – | – | – | 60% | 25% | 10% | – | – | – | – | – | – | – | – | – | 5% |
| Cc1nnc(NC(=O)c2ccc(C(F)(F)F)c([S@+]([O-])CCO)c2F)o1 [Compound 54] | 5 (Level 5: growth control rate is above 85%) | 5 (Level 5: growth control rate is above 85%) | 5 (Level 5: growth control rate is above 85%) | 5 (Level 5: growth control rate is above 85%) | 5 (Level 5: growth control rate is above 85%) | – | – | – | – | – | – | – | – | – | – | better activity | higher safety | – |
| Cc1nnc(NC(=O)c2ccc(C(F)(F)F)c([S@+]([O-])CC=C(Cl)Cl)c2F)o1 [Compound 40] | 5 (Level 5: growth control rate is above 85%) | 5 (Level 5: growth control rate is above 85%) | 5 (Level 5: growth control rate is above 85%) | 5 (Level 5: growth control rate is above 85%) | 5 (Level 5: growth control rate is above 85%) | – | – | – | – | – | – | – | – | – | – | better activity | higher safety | – |
